Tests used:
KCNQ2 = KCNQ2 (Homo sapiens, UniProt O43526); details: cited from earlier work
hKCNQ5 = molecular target: T1, hKCNQ5 (Homo sapiens, UniProt Q9NR82); assay: two-electrode voltage-clamp of KCNQ5 currents in Xenopus oocytes; assay type: cell-based
T1 construct: A composite full-length cDNA construct was assembled from two overlapping cDNA clones and subcloned into the Xenopus expression vector pSGEM; expressed in transfected cells; host or cells: Xenopus laevis oocytes injected with in vitro transcribed capped cRNA (vector pSGEM)
Excerpt: A, representative current traces from a KCNQ5 injected oocyte subjected to a pulse protocol that stepped the membrane potential from holding potential (−100 mV) to test pulses from −100 to +50 mV and back to holding potential. B, I-V relationships for KCNQ5 expressing oocytes (n=12) recorded using the protocol in A. C, tail current reversal potential of KCNQ 5 currents as a function of extracellular K^+ concentration. The dashed line is drawn according to the Nernst equation for a perfectly selective K^+ channel (n=5). D, effects of TEA, clofilium, quinidine, and chromanol 293 B on KCNQ 5 current. Superimposed currents were obtained during a 3 s depolarizing step from −100 mV to 0 mV, during the same experiment. […]
Xenopus laevis oocytes were obtained from tricaine anaesthetized animals. […] Macroscopic currents were recorded 2-4 days after injection. […]
The possible function of KCNQ5 as a potassium channel was addressed by electrophysiological analysis of Xenopus oocytes injected with KCNQ5 cRNA transcribed in vitro. Two to four days after injection novel currents were detected that were not observed in water-injected control oocytes. […] The two components of deactivation were determined at a repolarizing voltage of −100 mV following a 3s depolarizing step to +40 mV. […]

KCNQ3 = KCNQ3 (Rattus norvegicus, UniProt O88944); details: as reported; cited from earlier work
KCNQ3, sequence (O88944 whole entry): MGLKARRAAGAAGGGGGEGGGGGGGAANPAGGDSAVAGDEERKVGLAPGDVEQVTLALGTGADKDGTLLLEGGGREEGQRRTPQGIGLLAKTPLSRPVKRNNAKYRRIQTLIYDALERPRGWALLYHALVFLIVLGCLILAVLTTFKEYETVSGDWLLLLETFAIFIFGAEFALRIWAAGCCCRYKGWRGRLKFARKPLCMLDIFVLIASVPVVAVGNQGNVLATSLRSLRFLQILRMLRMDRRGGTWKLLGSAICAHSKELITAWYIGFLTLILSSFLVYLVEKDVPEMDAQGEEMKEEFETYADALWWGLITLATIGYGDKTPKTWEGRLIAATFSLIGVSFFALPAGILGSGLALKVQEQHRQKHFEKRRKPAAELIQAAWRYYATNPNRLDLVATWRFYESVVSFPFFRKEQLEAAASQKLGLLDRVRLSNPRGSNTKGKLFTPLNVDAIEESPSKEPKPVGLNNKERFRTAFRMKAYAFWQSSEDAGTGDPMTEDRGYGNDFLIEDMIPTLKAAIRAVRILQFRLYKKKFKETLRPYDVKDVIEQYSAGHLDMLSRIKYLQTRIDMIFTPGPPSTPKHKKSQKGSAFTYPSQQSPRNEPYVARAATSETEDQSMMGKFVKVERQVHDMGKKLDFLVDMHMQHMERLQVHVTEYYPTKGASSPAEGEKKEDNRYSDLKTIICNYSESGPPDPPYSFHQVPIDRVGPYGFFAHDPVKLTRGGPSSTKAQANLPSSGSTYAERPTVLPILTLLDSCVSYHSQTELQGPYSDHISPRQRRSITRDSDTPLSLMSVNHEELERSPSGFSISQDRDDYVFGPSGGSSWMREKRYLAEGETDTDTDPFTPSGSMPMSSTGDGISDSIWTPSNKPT

T1 sequence (Q9NR82 whole entry): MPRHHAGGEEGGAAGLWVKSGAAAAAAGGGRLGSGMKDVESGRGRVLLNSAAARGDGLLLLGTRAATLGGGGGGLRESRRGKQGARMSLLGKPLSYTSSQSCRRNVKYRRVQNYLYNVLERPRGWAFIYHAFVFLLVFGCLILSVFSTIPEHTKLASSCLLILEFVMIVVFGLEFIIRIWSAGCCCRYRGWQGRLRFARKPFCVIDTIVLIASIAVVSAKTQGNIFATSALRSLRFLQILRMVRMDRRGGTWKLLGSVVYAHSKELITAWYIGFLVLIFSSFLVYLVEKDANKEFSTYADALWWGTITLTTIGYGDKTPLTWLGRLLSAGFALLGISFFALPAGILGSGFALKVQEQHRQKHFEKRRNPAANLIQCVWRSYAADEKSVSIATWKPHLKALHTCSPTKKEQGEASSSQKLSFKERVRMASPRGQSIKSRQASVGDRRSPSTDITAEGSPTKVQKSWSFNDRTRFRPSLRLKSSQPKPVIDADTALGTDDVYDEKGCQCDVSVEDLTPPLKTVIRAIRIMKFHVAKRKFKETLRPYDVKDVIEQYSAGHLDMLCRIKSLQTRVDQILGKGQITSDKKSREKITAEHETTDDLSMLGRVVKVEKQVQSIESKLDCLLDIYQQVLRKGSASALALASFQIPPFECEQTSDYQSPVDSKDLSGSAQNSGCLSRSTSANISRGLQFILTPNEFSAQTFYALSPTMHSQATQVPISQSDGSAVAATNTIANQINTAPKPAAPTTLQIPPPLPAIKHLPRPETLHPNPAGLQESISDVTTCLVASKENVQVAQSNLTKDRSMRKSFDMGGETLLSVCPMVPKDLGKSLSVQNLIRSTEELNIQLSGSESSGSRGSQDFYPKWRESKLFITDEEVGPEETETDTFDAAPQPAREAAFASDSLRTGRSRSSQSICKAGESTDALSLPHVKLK
KCNQ2, sequence (O43526 whole entry): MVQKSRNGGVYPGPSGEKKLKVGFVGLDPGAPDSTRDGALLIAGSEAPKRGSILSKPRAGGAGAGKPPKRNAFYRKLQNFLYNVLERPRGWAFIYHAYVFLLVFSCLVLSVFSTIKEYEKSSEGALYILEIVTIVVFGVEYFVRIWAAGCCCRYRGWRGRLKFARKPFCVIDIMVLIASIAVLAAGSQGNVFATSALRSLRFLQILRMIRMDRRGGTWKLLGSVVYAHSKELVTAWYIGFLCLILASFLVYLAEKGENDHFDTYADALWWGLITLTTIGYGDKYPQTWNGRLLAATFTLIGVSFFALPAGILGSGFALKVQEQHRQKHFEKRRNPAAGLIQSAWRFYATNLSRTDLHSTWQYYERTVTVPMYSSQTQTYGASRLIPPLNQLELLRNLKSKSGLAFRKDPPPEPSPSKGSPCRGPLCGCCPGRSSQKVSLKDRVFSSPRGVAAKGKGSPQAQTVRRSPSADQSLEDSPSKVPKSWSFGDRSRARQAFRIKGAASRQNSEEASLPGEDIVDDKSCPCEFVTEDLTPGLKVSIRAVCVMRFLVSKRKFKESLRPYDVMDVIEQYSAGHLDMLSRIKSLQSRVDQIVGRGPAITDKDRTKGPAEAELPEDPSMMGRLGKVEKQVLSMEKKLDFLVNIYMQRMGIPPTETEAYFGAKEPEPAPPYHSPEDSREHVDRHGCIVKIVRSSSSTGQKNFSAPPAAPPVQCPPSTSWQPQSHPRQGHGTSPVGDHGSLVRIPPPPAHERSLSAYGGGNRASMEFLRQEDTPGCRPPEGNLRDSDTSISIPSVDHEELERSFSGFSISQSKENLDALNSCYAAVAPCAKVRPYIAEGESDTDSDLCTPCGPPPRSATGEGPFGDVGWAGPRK

## CCCCCCC[N+](CC)(CC)CCCCc1ccc(Cl)cc1 [Clofilium]
KCNQ2; 10 μM
  inhibition of KCNQ2: little inhibition

## CC[N+](CC)(CC)CC [TEA, tetraethylammonium]
hKCNQ5
  sensitivity of KCNQ5 currents to the blocker: insensitive
KCNQ2
  sensitivity of KCNQ2 to the blocker: high sensitivity
KCNQ3
  sensitivity of KCNQ3 to the blocker: insensitive

## C=C[C@H]1C[N@@]2CC[C@H]1C[C@@H]2[C@@H](O)c1ccnc2ccc(OC)cc12 [quinidine]
hKCNQ5; 300 μM, 3 s step from −100 mV to 0 mV
  block of KCNQ5 currents: 50%
